For one assay, the target named is EphA2 (Homo sapiens, UniProt P29317). Nature of the assay: Kinase assay, EphA2 (33P-ATP incorporation or luciferase-coupled ATP consumption). Format: biochemical. The gist of the method:
(§1)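 Two formats used: luciferase/luciferin chemiluminescence of ATP consumed with pEY, or radiometric 33P transfer to plate-bound MBP or pEY read by scintillation.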

Another assay addresses EGFR (Homo sapiens, UniProt P00533). Nature of the assay: Kinase assay, EGFR (33P-ATP incorporation or luciferase-coupled ATP consumption). Format: biochemical. The gist of the method:
as §1

The next assay deals with FGFR1 (Homo sapiens, UniProt P11362). Nature of the assay: Kinase assay, FGFR1 (33P-ATP incorporation or luciferase-coupled ATP consumption). It counts as biochemical. In short, it runs like this:
as §1

The target in a further assay is Fyn (Homo sapiens, UniProt P06241). Nature of the assay: Kinase assay, Fyn. Format: biochemical. As to the method: (§2) Kinase activity and compound inhibition are investigated using one or more assay formats. The ATP concentrations for each assay are selected to be close to the Michaelis-Menten constant (KM) for each individual kinase. Dose-response experiments are performed at 10 different inhibitor concentrations in a 384-well plate format. […] Exemplary kinase assays are described below. KDR Assay

The target of the next assay is c-Kit kinase (Homo sapiens, UniProt P10721). Nature of the assay: c-Kit AlphaScreen kinase assay. Format: biochemical. How it is done:
as §2
c-Kit biochemical activity was assessed using AlphaScreen™ (Perkin Elmer) technology, described above. Test compounds, ATP, biotinylated poly(Glu, Tyr) and c-Kit kinase were combined in a volume of 20 μL in a 384-well white, medium binding microtiter plate (Greiner). Reaction mixtures were incubated for 1 hr at ambient temperature. Reactions were quenched by addition of 10 uL of […] AlphaScreen bead suspension containing 75 mM Hepes, pH 7.4, 300 mM NaCl, 120 mM EDTA, 0.3% BSA and 0.03% Tween-20. After 16 hr incubation at ambient temperature plates were read using an AlphaQuest reader (Perkin Elmer).

For a further assay, the target named is PDGFR alpha (Homo sapiens, UniProt P16234). As to the kind of experiment: Kinase assay, PDGFR alpha (33P-ATP incorporation or luciferase-coupled ATP consumption). It counts as biochemical. The settings on record: read-out: PDGF-R-A IC50. In short, it runs like this:
as §1

In another assay the target is ALK (Homo sapiens, UniProt Q9UM73). Nature of the assay: Kinase assay, ALK (33P-ATP incorporation or luciferase-coupled ATP consumption). It counts as biochemical. How it is done:
Kinase assays were performed by measurement of incorporation of γ-^33P ATP into immobilized myelin basic protein (MBP). […] Plates were washed 3× with 100 μl TBS. […] Compound dilutions were performed in DMSO and added to assay wells to a final DMSO concentration of 1%. Each data point was measured in duplicate, and at least two duplicate assays were performed for each individual compound determination. Enzyme was added to final concentrations of 10 nM or 20 nM, for example. A mixture of unlabeled ATP and γ-^33P ATP was added to start the reaction (2×10^6 cpm of γ-^33P ATP per well (3000 Ci/mmole) and either 10 μM or 30 μM unlabeled ATP, typically. The reactions were carried out for 1 hour at room temperature with shaking. Plates were washed 7× with TBS, followed by the addition of 50 μl/well scintillation fluid (Wallac). Plates were read using a Wallac Trilux counter. This is only one format of such assays, various other formats are possible, as known to one of ordinary skill in the art.
Tyrosine kinase activity is determined by 1) measurement of kinase-dependent ATP consumption by in the presence of a generic substrate such as, polyglutamic acid, tyrosine, 4:1 (pEY), by luciferase/luciferin-mediated chemiluminescence or; 2) incorporation of radioactive phosphate derived from ^33P-ATP into a generic substrate which has been adsorbed onto the well surface of polystyrene microtiter plates. Phosphorylated substrate products are quantified by scintillation spectrometry.
as §2

In the next assay the target is IRK (Homo sapiens, UniProt P06213). Nature of the assay: Kinase assay, IRK. It counts as biochemical. As to the method:
as §2

The target in assay [1] is T1, KDR (baculovirus expressed human KDR kinase domain D807-V1356) (Homo sapiens, UniProt P35968).
T1 construct: human KDR kinase domain D807-V1356; host or cells: baculovirus expression system
As to the kind of experiment: biochemical. The gist of the method: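 Luciferase-coupled chemiluminescence quantifies ATP left after a 4 h room-temperature reaction of KDR kinase domain (D807–V1356, baculovirus-expressed human). ATP set close to KM; inhibitors tested at 10 concentrations.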

Another assay addresses T2, Flt3 (Homo sapiens, UniProt P36888).
T2 sequence (P36888 27-993): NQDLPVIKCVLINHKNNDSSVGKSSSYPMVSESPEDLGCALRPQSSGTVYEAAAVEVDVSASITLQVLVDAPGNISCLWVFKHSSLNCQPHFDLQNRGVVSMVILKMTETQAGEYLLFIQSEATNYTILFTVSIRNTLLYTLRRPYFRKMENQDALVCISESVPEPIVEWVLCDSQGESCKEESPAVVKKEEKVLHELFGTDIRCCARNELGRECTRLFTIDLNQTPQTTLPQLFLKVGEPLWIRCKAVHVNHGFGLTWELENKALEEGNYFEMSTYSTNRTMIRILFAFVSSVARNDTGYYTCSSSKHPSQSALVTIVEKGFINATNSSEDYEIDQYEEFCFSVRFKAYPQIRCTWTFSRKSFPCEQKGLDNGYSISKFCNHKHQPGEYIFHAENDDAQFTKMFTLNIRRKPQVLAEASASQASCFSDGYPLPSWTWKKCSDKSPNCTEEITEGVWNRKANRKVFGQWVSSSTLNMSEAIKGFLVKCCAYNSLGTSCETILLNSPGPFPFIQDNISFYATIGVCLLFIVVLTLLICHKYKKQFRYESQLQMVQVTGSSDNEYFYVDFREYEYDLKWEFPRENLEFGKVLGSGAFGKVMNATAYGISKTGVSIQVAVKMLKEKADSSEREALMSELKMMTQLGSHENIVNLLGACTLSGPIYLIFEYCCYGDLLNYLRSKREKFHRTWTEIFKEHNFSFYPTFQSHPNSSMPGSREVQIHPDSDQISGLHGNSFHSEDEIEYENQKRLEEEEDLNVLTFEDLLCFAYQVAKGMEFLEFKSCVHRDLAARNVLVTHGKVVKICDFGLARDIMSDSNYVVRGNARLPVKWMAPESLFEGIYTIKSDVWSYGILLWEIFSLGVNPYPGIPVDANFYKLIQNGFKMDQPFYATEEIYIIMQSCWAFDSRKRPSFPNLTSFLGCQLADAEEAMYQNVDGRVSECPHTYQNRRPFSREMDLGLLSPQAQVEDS
Nature of the assay: Kinase assay, Flt3. Format: biochemical. How it is done:
as §2

Bounds are passed on as bounds.

By IC50 is commonly meant the concentration that gives 50% inhibition.

Chain of c-Kit kinase (P10721 26-976): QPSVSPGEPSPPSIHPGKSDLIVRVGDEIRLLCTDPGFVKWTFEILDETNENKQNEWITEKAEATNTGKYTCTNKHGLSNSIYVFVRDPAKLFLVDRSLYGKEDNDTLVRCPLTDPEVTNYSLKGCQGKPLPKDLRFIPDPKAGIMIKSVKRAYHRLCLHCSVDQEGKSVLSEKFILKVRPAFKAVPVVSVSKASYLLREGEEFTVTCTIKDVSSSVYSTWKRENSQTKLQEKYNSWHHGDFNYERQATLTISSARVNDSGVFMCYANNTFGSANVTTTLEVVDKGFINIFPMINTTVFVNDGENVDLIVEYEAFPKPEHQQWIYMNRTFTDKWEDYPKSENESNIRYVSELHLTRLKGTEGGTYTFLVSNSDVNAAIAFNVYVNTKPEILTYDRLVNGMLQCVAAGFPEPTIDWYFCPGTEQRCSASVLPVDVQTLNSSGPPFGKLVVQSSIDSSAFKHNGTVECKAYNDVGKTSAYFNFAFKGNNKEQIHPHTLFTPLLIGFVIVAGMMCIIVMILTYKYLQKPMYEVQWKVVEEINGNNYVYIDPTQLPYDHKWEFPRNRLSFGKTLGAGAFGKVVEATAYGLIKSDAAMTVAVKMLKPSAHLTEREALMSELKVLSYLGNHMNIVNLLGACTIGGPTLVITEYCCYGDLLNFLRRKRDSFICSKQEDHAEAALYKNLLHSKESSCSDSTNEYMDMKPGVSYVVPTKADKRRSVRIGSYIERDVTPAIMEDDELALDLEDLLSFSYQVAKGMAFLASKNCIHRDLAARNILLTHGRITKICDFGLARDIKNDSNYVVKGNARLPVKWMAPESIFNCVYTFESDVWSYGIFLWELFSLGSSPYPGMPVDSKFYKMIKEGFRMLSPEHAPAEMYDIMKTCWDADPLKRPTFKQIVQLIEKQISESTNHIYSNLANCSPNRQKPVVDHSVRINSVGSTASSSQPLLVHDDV
Chain of IRK (P06213 28-1382): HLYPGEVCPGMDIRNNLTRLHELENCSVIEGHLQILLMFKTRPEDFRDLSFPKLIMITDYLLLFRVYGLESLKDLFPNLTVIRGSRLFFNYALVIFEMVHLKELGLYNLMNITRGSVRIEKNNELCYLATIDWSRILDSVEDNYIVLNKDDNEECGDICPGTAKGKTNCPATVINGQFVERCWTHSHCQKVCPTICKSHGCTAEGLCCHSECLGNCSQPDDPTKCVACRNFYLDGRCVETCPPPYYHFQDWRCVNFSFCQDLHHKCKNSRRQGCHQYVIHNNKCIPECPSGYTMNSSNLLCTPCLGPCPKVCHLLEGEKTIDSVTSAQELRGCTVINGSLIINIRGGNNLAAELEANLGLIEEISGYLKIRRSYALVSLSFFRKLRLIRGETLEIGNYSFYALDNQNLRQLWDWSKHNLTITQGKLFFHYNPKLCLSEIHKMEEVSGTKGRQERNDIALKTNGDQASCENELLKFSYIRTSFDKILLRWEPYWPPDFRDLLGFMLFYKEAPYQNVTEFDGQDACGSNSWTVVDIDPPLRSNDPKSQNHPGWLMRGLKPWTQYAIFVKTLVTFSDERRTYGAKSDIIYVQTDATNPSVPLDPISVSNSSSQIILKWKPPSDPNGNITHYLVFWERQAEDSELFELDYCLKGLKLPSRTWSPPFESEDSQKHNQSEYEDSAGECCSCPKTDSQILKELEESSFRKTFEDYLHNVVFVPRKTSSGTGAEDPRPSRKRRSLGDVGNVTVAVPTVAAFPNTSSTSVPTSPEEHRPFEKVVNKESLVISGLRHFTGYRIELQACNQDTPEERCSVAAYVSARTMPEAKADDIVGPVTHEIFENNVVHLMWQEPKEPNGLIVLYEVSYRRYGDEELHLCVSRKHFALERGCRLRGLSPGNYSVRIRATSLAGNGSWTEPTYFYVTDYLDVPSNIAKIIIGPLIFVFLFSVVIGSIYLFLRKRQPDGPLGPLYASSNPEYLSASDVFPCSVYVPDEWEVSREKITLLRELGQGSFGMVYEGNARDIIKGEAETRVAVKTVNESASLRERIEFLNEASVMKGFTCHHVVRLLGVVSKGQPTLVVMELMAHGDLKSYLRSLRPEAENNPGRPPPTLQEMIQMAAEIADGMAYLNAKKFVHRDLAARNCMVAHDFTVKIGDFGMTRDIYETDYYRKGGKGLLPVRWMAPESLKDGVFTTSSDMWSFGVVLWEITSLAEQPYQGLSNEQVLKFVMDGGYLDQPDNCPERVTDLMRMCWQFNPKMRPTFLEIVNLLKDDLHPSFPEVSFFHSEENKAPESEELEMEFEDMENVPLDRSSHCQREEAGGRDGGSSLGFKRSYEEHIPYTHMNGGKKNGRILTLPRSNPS
T1 sequence (P35968 807-1356): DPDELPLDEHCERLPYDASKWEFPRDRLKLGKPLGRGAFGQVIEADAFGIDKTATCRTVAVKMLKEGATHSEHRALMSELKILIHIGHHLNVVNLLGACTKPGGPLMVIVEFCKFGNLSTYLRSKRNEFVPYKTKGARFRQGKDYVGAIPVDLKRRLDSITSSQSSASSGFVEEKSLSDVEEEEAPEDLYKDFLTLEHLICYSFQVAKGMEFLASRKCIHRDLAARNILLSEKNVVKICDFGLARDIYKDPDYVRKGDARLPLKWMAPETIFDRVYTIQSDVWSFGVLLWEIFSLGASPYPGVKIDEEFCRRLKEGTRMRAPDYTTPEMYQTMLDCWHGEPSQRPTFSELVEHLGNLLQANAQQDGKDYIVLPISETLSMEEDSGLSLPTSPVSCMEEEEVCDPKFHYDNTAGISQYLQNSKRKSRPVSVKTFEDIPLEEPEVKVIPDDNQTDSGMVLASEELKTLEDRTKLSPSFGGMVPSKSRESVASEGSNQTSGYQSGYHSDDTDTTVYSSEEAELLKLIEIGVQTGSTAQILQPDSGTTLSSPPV
Chain of ALK (Q9UM73 19-1620, species assumed): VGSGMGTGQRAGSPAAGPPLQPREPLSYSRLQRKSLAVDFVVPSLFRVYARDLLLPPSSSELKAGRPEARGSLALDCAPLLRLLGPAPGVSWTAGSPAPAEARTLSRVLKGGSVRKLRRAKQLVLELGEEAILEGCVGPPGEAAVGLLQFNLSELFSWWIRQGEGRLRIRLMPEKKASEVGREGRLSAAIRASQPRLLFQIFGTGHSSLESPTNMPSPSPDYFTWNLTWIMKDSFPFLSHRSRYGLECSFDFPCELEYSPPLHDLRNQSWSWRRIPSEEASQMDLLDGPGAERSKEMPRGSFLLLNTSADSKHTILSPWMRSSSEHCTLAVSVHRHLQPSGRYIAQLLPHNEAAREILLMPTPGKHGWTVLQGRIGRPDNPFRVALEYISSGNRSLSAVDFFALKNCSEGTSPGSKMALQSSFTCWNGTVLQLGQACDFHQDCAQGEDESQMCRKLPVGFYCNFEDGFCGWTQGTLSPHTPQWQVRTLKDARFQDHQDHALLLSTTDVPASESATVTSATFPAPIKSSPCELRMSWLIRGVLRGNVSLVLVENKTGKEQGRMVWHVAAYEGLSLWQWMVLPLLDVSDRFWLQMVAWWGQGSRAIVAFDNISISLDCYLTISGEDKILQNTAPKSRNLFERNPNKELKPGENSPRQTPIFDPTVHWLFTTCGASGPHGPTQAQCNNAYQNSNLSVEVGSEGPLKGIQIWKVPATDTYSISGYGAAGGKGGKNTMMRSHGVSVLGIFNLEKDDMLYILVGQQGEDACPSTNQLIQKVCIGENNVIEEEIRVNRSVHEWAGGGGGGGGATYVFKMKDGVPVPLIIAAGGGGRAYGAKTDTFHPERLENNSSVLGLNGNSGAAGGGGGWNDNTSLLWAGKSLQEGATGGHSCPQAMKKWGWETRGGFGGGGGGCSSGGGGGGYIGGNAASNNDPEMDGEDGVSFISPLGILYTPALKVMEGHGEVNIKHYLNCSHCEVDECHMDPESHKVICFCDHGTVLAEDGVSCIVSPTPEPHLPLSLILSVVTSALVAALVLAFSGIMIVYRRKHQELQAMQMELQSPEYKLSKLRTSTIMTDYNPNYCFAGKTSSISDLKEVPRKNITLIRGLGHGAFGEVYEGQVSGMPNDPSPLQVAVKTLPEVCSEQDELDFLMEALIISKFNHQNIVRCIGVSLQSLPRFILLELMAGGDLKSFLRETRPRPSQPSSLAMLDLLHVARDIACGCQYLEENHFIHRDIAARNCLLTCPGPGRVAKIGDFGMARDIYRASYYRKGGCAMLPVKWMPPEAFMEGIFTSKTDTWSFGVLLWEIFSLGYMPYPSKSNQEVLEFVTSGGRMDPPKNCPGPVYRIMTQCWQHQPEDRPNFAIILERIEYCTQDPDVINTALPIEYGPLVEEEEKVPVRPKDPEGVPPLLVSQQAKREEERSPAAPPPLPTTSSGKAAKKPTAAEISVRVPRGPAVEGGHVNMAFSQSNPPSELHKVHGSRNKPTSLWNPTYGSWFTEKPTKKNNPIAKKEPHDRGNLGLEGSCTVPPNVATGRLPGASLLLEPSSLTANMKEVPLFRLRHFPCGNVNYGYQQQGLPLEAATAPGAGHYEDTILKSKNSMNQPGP
Chain of Fyn (P06241 whole entry, species assumed): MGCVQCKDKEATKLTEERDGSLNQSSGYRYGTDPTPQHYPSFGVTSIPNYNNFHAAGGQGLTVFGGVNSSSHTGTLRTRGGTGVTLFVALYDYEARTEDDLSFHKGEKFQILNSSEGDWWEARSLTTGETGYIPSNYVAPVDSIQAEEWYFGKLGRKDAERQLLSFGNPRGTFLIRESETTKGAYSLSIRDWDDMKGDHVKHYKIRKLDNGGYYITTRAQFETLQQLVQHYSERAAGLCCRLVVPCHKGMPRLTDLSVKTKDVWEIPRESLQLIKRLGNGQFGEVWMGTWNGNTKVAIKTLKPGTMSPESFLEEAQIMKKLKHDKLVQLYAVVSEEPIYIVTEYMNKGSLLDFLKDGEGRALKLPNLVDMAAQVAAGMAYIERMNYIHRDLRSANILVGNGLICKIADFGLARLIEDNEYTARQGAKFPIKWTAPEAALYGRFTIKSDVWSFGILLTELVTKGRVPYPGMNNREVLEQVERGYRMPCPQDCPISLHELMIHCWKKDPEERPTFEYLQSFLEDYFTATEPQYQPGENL

Turning to `CCN1CCC(Nc2ccc3c(c2)/C(=C(\c2ccc(Cl)cc2)c2nc(C)c[nH]2)C(=O)N3)CC1` [Entry 102], the IC50 on EphA2 was 0.5 to 5 µM; on EGFR, 0.05 to 0.5 µM; against FGFR1 it was < 0.05 µM; against Fyn, < 0.05 µM; at c-Kit kinase it was < 0.05 µM; on PDGFR alpha it was < 0.05 µM. Also, the half-maximal inhibitory concentration (IC50) was < 0.05 µM on ALK, 0.5 to 5 µM on IRK and < 0.05 µM in [1].
In the case of `CCN1CCC(Nc2ccc3c(c2)/C(=C(\c2ccc(F)cc2)c2ncc[nH]2)C(=O)N3)CC1` [Entry 58, (3Z)-5-[(1-ethylpiperidin-4-yl)amino]-3-[(4-fluorophenyl)(1H-imidazol-2-yl)methylidene]-1,3-dihydro-2H-indol-2-one], the 50% inhibitory concentration (IC50) on EphA2 was 0.5 to 5 µM; against EGFR, 0.5 to 5 µM; against FGFR1, < 0.05 µM; against Fyn it was < 0.05 µM; on c-Kit kinase it was < 0.05 µM; on PDGFR alpha it was < 0.05 µM. Moreover, the IC50 at ALK is 0.05 to 0.5 µM; against IRK, > 5 µM; in [1], < 0.05 µM.
Take `CCN1CCC(Nc2ccc3c(c2)/C(=C(\c2ccc(C)c(F)c2)c2nc(C)c[nH]2)C(=O)N3)CC1` [Entry 67, (3Z)-5-[(1-ethylpiperidin-4-yl)amino]-3-[(3-fluoro-4-methylphenyl) (4-methyl-1H-imidazol-2-yl)methylidene]-1,3-dihydro-2H-indol-2-one]: the half-maximal inhibitory concentration (IC50) was 0.05 to 0.5 µM on EphA2; < 0.05 µM against EGFR; < 0.05 µM at FGFR1; < 0.05 µM on Fyn; < 0.05 µM at PDGFR alpha; < 0.05 µM against ALK. For the same compound, the IC50 against IRK is 0.5 to 5 µM; in assay [1] it was < 0.05 µM.
For `CCN1CCC(Nc2ccc3c(c2)/C(=C(/c2nc(C)c[nH]2)c2cc(F)c(Cl)cc2Cl)C(=O)N3)CC1` [Entry 117, (3Z)-3-[(2,4-dichloro-5-fluorophenyl)(4-methyl-1H-imidazol-2-yl)methylidene]-5-[(1-ethylpiperidin-4-yl)amino]-1,3-dihydro-2H-indol-2-one], the IC50 against EphA2 is 0.5 to 5 µM; against EGFR, 0.05 to 0.5 µM; at FGFR1, < 0.05 µM; against Flt3, < 0.05 µM; against Fyn, < 0.05 µM; on c-Kit kinase, < 0.05 µM. For the same compound, the figures for the concentration for half-maximal inhibition (IC50) (on PDGFR alpha; at IRK; in assay [1]) were < 0.05 µM, 0.5 to 5 µM and < 0.05 µM, respectively.
As for `CCN1CCC(Nc2ccc3c(c2)/C(=C(\c2ccc(C)cc2)c2nc(C)c[nH]2)C(=O)N3)CC1` [Entry 64, (3Z)-5-[(1-ethylpiperidin-4-yl)amino]-3-[(4-methyl-1H-imidazol-2-yl)(4-methylphenyl)methylidene] 1,3-dihydro-2H-indol-2-one], the IC50 against EphA2 was 0.05 to 0.5 µM; against EGFR, 0.05 to 0.5 µM; against FGFR1 it was < 0.05 µM; at Fyn, < 0.05 µM; on PDGFR alpha it was < 0.05 µM; at ALK, < 0.05 µM. Further, the half-maximal inhibitory concentration (IC50) is 0.5 to 5 µM against IRK and < 0.05 µM in assay [1].
Consider `CCN1CCC(Nc2ccc3c(c2)/C(=C(\c2ccc(C)c(F)c2)c2ncc[nH]2)C(=O)N3)CC1` [Entry 57, (3Z)-5-[(1-ethylpiperidin-4-yl)amino]-3-[(3-fluoro-4-methylphenyl)(1H-imidazol-2-yl)methylidene]-1,3-dihydro-2H-indol-2-one], for which the IC50 was 0.05 to 0.5 µM against EphA2; < 0.05 µM against FGFR1; < 0.05 µM against Fyn; < 0.05 µM at PDGFR alpha; 0.05 to 0.5 µM against ALK; 0.5 to 5 µM against IRK. Moreover, in [1], the IC50 is < 0.05 µM.
On to `CCN1CCC(Nc2ccc3c(c2)/C(=C(/c2nc(C)c[nH]2)c2ccc(F)cc2F)C(=O)N3)CC1` [Entry 111, (3Z)-3-[(2,4-difluorophenyl)(4-methyl-1H-imidazol-2-yl)methylidene]-5-[(1-ethylpiperidin-4-yl)amino]-1,3-dihydro-2H-indol-2-one], for which the IC50 at EphA2 is 0.5 to 5 µM; against EGFR it was 0.05 to 0.5 µM; against FGFR1, 0.05 to 0.5 µM; on Fyn, < 0.05 µM; against c-Kit kinase it was < 0.05 µM; at PDGFR alpha, < 0.05 µM. Also, the figures for the IC50 (at ALK; against IRK; in [1]) were 0.05 to 0.5 µM, 0.5 to 5 µM and < 0.05 µM, respectively.
Regarding `CCN1CCC(Nc2ccc3c(c2)/C(=C(/c2nc(C)c[nH]2)c2ccc(Cl)cc2F)C(=O)N3)CC1` [Entry 118, (3Z)-3-[(4-chloro-2-fluorophenyl)(4-methyl-1H-imidazol-2-yl)methylidene]-5-[(1-ethylpiperidin-4-yl)amino]-1,3-dihydro-2H-indol-2-one], the half-maximal inhibitory concentration (IC50) was 0.5 to 5 µM against EphA2; < 0.05 µM against EGFR; < 0.05 µM at FGFR1; < 0.05 µM against Fyn; < 0.05 µM against c-Kit kinase; < 0.05 µM on ALK. For the same compound, the half-maximal inhibitory concentration (IC50) is 0.05 to 0.5 µM against IRK and < 0.05 µM in assay [1].
As for `CCN1CCC(Nc2ccc3c(c2)/C(=C(/c2nc(C)c[nH]2)c2cccc(F)c2F)C(=O)N3)CC1` [Entry 110, (3Z)-3-[(2,3-difluorophenyl)(4-methyl-1H-imidazol-2-yl)methylidene]-5-[(1-ethylpiperidin-4-yl)amino]-1,3-dihydro-2H-indol-2-one], the 50% inhibitory concentration (IC50) against EphA2 was 0.5 to 5 µM; against EGFR, 0.05 to 0.5 µM; on FGFR1 it was < 0.05 µM; against Fyn, < 0.05 µM; against c-Kit kinase it was < 0.05 µM; at PDGFR alpha it was < 0.05 µM. Also, the 50% inhibitory concentration (IC50) is < 0.05 µM against ALK, 0.5 to 5 µM against IRK and < 0.05 µM in assay [1].

For the origin of these results see patent publication US7626031B2, “Substituted 3-(diarylmethylene)indolin-2-ones and methods of their use” (Symphony Evolution, Inc., priority 2002, dated 2009).
